From paper PMC6325200, “Effects of Microplate Type and Broth Additives on Microdilution MIC Susceptibility Assays” (Antimicrobial Agents and Chemotherapy, 2018)
Converted amounts (≈) assume the structure as drawn. “And” between values parts separate entries of the source, which are not always exact repeats. Identical values can stand only once. Like-named read-outs stand apart in the source and are kept apart here. Where a SMILES comes first, the peptide text is derived from it. Bridges are numbered along the chain shown (N, C = ends). [ ]: non-standard residue; d: D form. The star is where a group is joined. X1 = CC[C@H](C)CCCCC(=O)*; Dab = NCC[C@H](N)C(=O)O

Assays:
E. coli = conditions: literature value; cited from earlier work
K. pneumoniae ATCC 13883 = assay: microbe, parasite or virus in culture; conditions: n = 2
Outline: (§1)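 Broth microdilution: 2-fold serial dilutions of test compounds plus reference antibiotics; inoculum = culture diluted 40x in MH broth ±Tween, 37°C, 2–3 h. Controls per plate: bacteria alone (positive), medium alone (negative).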

P. aeruginosa ATCC 10145 = assay: microbe, parasite or virus in culture; conditions: n = 2
Outline: as §1

A. baumannii ATCC 19606 = assay: microbe, parasite or virus in culture; conditions: n = 2
Outline: as §1

over 200 strains = conditions: 0.002% polysorbate added; cited from earlier work
Source text: (§2) Members of the lipopeptide polymyxin class of antibiotics (polymyxin B [compound 7a] and polymyxin E [or colistin, compound 7b]) are important last-line therapeutic agents against many multidrug-resistant Gram-negative bacteria ([27][–][31]). They consist of an N-terminal fatty acid side chain that is attached to a polycationic deca-peptide backbone (Fig. 1) with physicochemical properties similar to those of the lipoglycopeptides. These structural features confer amphipathicity, which is a key feature of many other cationic antimicrobial peptides (CAMPs) ([32][–][34]). As mentioned earlier, p ...

[1] = 8 µg/ml, 24 h, cited from earlier work; for % of expected concentration detected: MHB
Source text: as §2

[2] = literature values, reference given; cited from earlier work
Source text: Other assay additives can affect MIC values. […] Plasma protein binding has been implicated as a major factor limiting the active free concentration of many clinically important antibiotics ([37][–][42]).

E. coli ATCC 25922 = assay: microbe, parasite or virus in culture
Experimental: A positive control of a row of just the bacteria and a negative control of only the medium were included for every plate tested.
The compounds along with standard antibiotics were serially diluted 2-fold across the 96-well plates. […] A sample of each culture was then diluted 40-fold in fresh MH broth (in presence and absence of Tween) and incubated at 37°C for 2 to 3 h.
For experiments in the presence of surfactant, 2% beractant (25 mg/ml) was added to the mid-log-phase cultures and mixed gently and added to all the 96-well plates. For experiments in the presence of serum, a mixture of 50% of human serum along with 50% MHB was prepared and used throughout the experiment.

CC[C@H](C)CCCCC(=O)N[C@@H](CCN)C(=O)N[C@H](C(=O)N[C@@H](CCN)C(=O)N[C@H]1CCNC(=O)[C@H]([C@@H](C)O)NC(=O)[C@H](CCN)NC(=O)[C@H](CCN)NC(=O)[C@H](CC(C)C)NC(=O)[C@@H](CC(C)C)NC(=O)[C@H](CCN)NC1=O)[C@@H](C)O [Colistin, colistin] (X1-[Dab]T[Dab][Dab][Dab][dL]L[Dab][Dab]T; lactam 4-C (inferred); N-terminus assumed)
MIC (literature) (E. coli): 0.5–2 ([70]) µg/ml
MIC (K. pneumoniae ATCC 13883; Corning NBS, MHB +T80): ≤ 0.03 µg/mL
MIC (K. pneumoniae ATCC 13883; Corning NBS, MHB -T80): ≤ 0.03 µg/mL
MIC (K. pneumoniae ATCC 13883; Corning PS, MHB +T80): ≤ 0.03 µg/mL
MIC (K. pneumoniae ATCC 13883; Corning PS, MHB -T80): 0.125 to 0.25 µg/mL
MIC (K. pneumoniae ATCC 13883; Corning TC, MHB +T80): 0.25 to 0.5 µg/mL
MIC (K. pneumoniae ATCC 13883; Corning TC, MHB -T80): 2 µg/mL (≈ 1.71 µM)
MIC (P. aeruginosa ATCC 10145; Corning NBS, MHB +T80): 0.125 µg/mL (≈ 0.107 µM)
MIC (P. aeruginosa ATCC 10145; Corning NBS, MHB -T80): 0.06 µg/mL (≈ 0.0513 µM)
MIC (P. aeruginosa ATCC 10145; Corning PS, MHB +T80): 0.25 to 0.5 µg/mL
MIC (P. aeruginosa ATCC 10145; Corning PS, MHB -T80): 0.25 to 0.5 µg/mL
MIC (P. aeruginosa ATCC 10145; Corning TC, MHB +T80): 1 to 2 µg/mL
MIC (P. aeruginosa ATCC 10145; Corning TC, MHB -T80): 0.5 to 2 µg/mL
MIC (A. baumannii ATCC 19606; Corning NBS, MHB +T80): ≤ 0.03 µg/mL
MIC (A. baumannii ATCC 19606; Corning NBS, MHB -T80): ≤ 0.03 µg/mL
MIC (A. baumannii ATCC 19606; Corning PS, MHB +T80): 0.06 µg/mL (≈ 0.0513 µM)
MIC (A. baumannii ATCC 19606; Corning PS, MHB -T80): 0.06 to 0.125 µg/mL
MIC (A. baumannii ATCC 19606; Corning TC, MHB +T80): 1 to 2 µg/mL
MIC (A. baumannii ATCC 19606; Corning TC, MHB -T80): 0.5 to 1 µg/mL
more potent MICs with surfactant present (over 200 strains): 4- to 8 fold
% of concentration remaining ([1]; Greiner untreated PS microwell plates): 2%
% of expected concentration detected ([1]; PP tubes): 90%
% of expected concentration detected ([1]; PS tubes): 84%
% of expected concentration detected ([1]; glass tubes): 80%
% of concentration remaining ([1]; Nunc untreated PS microwell plates): 70%
protein binding [2]: 50 to 60% and 60%
MIC (E. coli ATCC 25922; Corning NBS, MH + 2% LHB, 2% LS, n = 2): 0.03 to 0.06 µg/mL
MIC (E. coli ATCC 25922; Corning NBS, MH + 2% LHB, 50% HS, n = 2): ≤0.03 µg/mL
MIC (E. coli ATCC 25922; Corning NBS, MH + 2% LHB, no additive, n = 2): ≤0.03 µg/mL
MIC (E. coli ATCC 25922; Corning NBS, MH + T80, 2% LS, n = 2): 0.03 to 0.06 µg/mL
MIC (E. coli ATCC 25922; Corning NBS, MH + T80, 50% HS, n = 2): ≤0.03 µg/mL
MIC (E. coli ATCC 25922; Corning NBS, MH, 2% LS, n = 2): ≤0.03 µg/mL
MIC (E. coli ATCC 25922; Corning NBS, MH, 50% HS, n = 2): ≤0.03 µg/mL
MIC (E. coli ATCC 25922; Corning PS plate, MHB −T80, no additive, n = 2): 0.06 µg/mL (≈ 0.0513 µM)
MIC (E. coli ATCC 25922; Corning PS, MH + 2% LHB, 2% LS, n = 2): 0.06 to 0.125 µg/mL
MIC (E. coli ATCC 25922; Corning PS, MH + 2% LHB, 50% HS, n = 2): ≤0.03 µg/mL
MIC (E. coli ATCC 25922; Corning PS, MH + 2% LHB, no additive, n = 2): 1 µg/mL
MIC (E. coli ATCC 25922; Corning PS, MH + T80, 2% LS, n = 2): 0.03 to 0.06 µg/mL
MIC (E. coli ATCC 25922; Corning PS, MH + T80, 50% HS, n = 2): ≤0.03 µg/mL
MIC (E. coli ATCC 25922; Corning PS, MH, 2% LS, n = 2): 0.06 to 0.25 µg/mL
MIC (E. coli ATCC 25922; Corning PS, MH, 50% HS, n = 2): ≤0.03 µg/mL
MIC (E. coli ATCC 25922; Corning TC plate, MHB +0.002% T80, no further additive, n = 2): 1 µg/mL (≈ 0.855 µM)
MIC (E. coli ATCC 25922; Corning TC plate, MHB −T80, no additive, n = 2): 0.5 to 1 µg/mL
MIC (E. coli ATCC 25922; Corning TC, MH + 2% LHB, 2% LS, n = 2): 2 to 4 µg/mL
MIC (E. coli ATCC 25922; Corning TC, MH + 2% LHB, 50% HS, n = 2): 0.25 to 0.5 µg/mL
MIC (E. coli ATCC 25922; Corning TC, MH + 2% LHB, no additive, n = 2): ≤0.03 µg/mL
MIC (E. coli ATCC 25922; Corning TC, MH + T80, 2% LS, n = 2): 1 to 2 µg/mL
MIC (E. coli ATCC 25922; Corning TC, MH + T80, 50% HS, n = 2): 0.25 to 0.5 µg/mL
MIC (E. coli ATCC 25922; Corning TC, MH, 2% LS, n = 2): 0.5 to 1 µg/mL
MIC (E. coli ATCC 25922; Corning TC, MH, 50% HS, n = 2): 0.125 to 0.5 µg/mL
MIC (E. coli ATCC 25922; NBS plates): ≤ 0.03 µg/mL
MIC (E. coli ATCC 25922; Nunc PS plate, MHB +0.002% T80, n = 2): ≤0.03 µg/mL
MIC (E. coli ATCC 25922; Nunc PS plate, MHB −T80, n = 2): 0.125 to 1 µg/mL
MIC (E. coli ATCC 25922; Nunc U TC plate, MHB +0.002% T80, n = 2): 2 µg/mL (≈ 1.71 µM)
MIC (E. coli ATCC 25922; Nunc U TC plate, MHB −T80, n = 2): 0.5 to 1 µg/mL
MIC (E. coli ATCC 25922; Nunc flat TC plate, MHB +0.002% T80, n = 2): 1 to 2 µg/mL
MIC (E. coli ATCC 25922; Nunc flat TC plate, MHB −T80, n = 2): 1 to 2 µg/mL
MIC (E. coli ATCC 25922; PS plates): ≤0.03 to 1 µg/mL
MIC (E. coli ATCC 25922; PS plates with T80): ≤0.03 to 0.25 µg/mL
MIC (E. coli ATCC 25922; TC plates): 0.5 to 4 µg/mL
MIC (E. coli ATCC 25922; Trek PS plate, MHB +0.002% T80, no further additive, n = 2): ≤0.03 µg/mL
MIC (E. coli ATCC 25922; Trek PS plate, MHB −T80, no additive, n = 2): ≤0.03 µg/mL
MIC (E. coli ATCC 25922; Trek PS, MH + 2% LHB, 2% LS, n = 2): ≤0.03 µg/mL
MIC (E. coli ATCC 25922; Trek PS, MH + 2% LHB, 50% HS, n = 2): 0.03 to 0.06 µg/mL
MIC (E. coli ATCC 25922; Trek PS, MH + 2% LHB, no additive, n = 2): 0.03 to 0.06 µg/mL
MIC (E. coli ATCC 25922; Trek PS, MH + T80, 2% LS, n = 2): ≤0.03 µg/mL
MIC (E. coli ATCC 25922; Trek PS, MH + T80, 50% HS, n = 2): ≤0.03 µg/mL
MIC (E. coli ATCC 25922; Trek PS, MH, 2% LS, n = 2): ≤0.03 µg/mL
MIC (E. coli ATCC 25922; Trek PS, MH, 50% HS, n = 2): ≤0.03 µg/mL
